For one experiment, the target named is TLK2 (Homo sapiens, UniProt Q86UE8). Description: biochemical. The settings on record: read-out: % enzyme activity, 1 μM; Run 1, Run 2.
A further experiment concerns the target ERN1/IRE1 (Homo sapiens, UniProt O75460). As to conditions: 1 μM; Run 1, Run 2.
For a further experiment, the target named is CK2a2 (Homo sapiens, UniProt P19784). Description: biochemical. The settings on record: read-out: % enzyme activity, 1 μM; Run 1, Run 2.
For another experiment, the target named is STK32B/YANK2 (Homo sapiens, UniProt Q9NY57). The settings on record: 1 μM; Run 1, Run 2.
The next experiment deals with T1, PDK1/PDPK1 (Homo sapiens, UniProt O15530).
T1 sequence (O15530 1-556): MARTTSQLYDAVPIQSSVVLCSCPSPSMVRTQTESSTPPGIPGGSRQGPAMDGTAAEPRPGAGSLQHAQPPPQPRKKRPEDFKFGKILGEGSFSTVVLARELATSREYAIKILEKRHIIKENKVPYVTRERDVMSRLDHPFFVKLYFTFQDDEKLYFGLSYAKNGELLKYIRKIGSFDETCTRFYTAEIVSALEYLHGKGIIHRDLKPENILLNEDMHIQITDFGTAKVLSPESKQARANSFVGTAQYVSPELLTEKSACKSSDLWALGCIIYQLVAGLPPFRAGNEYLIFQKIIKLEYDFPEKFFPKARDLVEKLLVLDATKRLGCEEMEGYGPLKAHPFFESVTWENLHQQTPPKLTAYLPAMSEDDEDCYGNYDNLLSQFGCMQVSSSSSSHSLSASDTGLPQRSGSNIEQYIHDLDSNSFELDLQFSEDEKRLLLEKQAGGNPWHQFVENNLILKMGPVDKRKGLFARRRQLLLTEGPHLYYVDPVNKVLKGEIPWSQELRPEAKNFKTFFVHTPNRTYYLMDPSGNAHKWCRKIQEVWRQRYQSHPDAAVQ
As to conditions: 1 μM; Run 1, Run 2.

The next experiment deals with T2, DCAMKL1 (Homo sapiens, UniProt O15075).
T2 sequence (O15075 1-740): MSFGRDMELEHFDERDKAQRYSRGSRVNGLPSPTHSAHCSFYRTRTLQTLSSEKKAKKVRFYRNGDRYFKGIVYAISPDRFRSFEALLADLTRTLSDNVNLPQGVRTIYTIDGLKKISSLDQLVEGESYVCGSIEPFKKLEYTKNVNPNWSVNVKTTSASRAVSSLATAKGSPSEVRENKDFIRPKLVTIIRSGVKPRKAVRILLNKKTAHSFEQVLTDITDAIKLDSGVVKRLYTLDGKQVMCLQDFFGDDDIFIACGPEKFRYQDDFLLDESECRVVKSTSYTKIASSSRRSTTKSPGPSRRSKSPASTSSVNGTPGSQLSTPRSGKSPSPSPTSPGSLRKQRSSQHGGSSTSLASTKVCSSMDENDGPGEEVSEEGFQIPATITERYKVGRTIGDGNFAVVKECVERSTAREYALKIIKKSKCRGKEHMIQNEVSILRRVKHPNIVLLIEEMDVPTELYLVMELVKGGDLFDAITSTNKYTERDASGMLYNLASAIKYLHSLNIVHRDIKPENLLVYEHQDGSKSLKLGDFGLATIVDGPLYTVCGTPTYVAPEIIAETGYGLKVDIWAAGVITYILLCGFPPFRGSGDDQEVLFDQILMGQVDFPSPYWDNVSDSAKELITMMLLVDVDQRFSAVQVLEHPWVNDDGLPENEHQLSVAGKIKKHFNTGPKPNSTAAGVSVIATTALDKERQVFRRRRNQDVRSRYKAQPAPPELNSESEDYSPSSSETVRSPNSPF
The settings on record: 1 μM; Run 1, Run 2.

A further experiment concerns the target T3, P38d/MAPK13 (Homo sapiens, UniProt O15264).
T3 sequence (O15264 1-365): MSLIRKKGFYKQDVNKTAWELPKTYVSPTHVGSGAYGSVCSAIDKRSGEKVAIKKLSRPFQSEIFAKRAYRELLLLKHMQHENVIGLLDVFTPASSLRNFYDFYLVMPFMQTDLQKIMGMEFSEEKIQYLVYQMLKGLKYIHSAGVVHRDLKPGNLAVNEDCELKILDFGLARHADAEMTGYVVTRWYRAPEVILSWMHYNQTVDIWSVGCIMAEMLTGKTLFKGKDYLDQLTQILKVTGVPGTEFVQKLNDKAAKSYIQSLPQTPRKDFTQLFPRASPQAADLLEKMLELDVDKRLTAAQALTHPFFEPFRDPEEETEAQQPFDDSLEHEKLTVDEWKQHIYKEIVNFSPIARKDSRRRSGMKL
Description: biochemical. As to conditions: read-out: % enzyme activity, 1 μM; Run 1, Run 2.

For a further experiment, the target named is GRK4 (Homo sapiens, UniProt P32298). The experiment in a line: biochemical. The settings on record: read-out: % enzyme activity, 1 μM; Run 1, Run 2.
A further experiment concerns the target c-Src (Homo sapiens, UniProt P12931). As to conditions: 1 μM; Run 1, Run 2.
Another experiment has as its target T4, MAK (Homo sapiens, UniProt P20794).
T4 sequence (P20794 1-623): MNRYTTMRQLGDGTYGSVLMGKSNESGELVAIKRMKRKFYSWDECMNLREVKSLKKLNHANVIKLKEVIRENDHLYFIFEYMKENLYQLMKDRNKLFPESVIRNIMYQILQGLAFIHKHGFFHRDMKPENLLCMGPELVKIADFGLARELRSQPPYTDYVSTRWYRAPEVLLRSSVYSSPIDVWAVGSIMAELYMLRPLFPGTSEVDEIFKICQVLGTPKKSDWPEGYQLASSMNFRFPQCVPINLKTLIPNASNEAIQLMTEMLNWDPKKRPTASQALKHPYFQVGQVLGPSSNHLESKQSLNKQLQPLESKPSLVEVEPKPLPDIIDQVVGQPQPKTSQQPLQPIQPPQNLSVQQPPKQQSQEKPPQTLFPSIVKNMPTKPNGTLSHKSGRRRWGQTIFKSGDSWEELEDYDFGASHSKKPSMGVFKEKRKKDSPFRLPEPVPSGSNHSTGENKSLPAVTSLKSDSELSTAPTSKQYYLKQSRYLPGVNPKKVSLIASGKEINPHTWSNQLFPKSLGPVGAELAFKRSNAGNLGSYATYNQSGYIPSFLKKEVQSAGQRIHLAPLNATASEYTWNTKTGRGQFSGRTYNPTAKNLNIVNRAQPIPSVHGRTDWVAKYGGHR
As to conditions: 1 μM; Run 1, Run 2.

The target in a further experiment is DYRK1B (Homo sapiens, UniProt Q9Y463). The settings on record: 1 μM; Run 1, Run 2.

Consider 2 compounds from article PMC8213057, “Targeting ALK2: An Open Science Approach to Developing Therapeutics for the Treatment of Diffuse Intrinsic Pontine Glioma” (Journal of Medicinal Chemistry, 2020).

Chain of c-Src (P12931 whole entry): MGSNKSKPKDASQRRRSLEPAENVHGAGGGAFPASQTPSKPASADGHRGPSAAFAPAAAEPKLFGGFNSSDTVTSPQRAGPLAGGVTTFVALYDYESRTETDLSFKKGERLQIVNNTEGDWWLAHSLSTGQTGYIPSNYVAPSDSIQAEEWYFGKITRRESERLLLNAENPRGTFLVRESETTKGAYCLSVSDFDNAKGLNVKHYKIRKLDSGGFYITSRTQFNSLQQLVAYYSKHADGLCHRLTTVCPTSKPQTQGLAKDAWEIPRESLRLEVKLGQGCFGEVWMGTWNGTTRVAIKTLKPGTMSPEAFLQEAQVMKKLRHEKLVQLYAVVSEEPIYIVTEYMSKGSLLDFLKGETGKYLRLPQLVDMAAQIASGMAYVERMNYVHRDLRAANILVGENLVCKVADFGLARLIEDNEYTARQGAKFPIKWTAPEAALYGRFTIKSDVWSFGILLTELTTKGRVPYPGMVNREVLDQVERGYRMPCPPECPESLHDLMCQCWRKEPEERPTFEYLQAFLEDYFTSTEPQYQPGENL
Chain of DYRK1B (Q9Y463 whole entry): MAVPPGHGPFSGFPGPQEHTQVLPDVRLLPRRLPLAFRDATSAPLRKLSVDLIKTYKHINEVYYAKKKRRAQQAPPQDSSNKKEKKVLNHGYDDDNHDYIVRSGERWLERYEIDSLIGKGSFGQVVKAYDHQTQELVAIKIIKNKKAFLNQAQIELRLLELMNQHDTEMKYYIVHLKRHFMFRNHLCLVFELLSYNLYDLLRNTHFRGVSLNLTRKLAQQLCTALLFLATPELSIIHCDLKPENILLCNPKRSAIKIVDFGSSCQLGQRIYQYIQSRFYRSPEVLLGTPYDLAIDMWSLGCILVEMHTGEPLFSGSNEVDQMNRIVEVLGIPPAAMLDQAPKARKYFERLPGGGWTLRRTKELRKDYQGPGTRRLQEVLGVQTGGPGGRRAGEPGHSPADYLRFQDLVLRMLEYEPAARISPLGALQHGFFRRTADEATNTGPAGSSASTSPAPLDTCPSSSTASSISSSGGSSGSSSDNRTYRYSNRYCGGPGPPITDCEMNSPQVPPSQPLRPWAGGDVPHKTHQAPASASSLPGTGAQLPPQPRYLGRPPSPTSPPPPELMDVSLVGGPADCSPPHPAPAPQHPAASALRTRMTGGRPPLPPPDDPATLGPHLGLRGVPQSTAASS
Chain of TLK2 (Q86UE8 whole entry): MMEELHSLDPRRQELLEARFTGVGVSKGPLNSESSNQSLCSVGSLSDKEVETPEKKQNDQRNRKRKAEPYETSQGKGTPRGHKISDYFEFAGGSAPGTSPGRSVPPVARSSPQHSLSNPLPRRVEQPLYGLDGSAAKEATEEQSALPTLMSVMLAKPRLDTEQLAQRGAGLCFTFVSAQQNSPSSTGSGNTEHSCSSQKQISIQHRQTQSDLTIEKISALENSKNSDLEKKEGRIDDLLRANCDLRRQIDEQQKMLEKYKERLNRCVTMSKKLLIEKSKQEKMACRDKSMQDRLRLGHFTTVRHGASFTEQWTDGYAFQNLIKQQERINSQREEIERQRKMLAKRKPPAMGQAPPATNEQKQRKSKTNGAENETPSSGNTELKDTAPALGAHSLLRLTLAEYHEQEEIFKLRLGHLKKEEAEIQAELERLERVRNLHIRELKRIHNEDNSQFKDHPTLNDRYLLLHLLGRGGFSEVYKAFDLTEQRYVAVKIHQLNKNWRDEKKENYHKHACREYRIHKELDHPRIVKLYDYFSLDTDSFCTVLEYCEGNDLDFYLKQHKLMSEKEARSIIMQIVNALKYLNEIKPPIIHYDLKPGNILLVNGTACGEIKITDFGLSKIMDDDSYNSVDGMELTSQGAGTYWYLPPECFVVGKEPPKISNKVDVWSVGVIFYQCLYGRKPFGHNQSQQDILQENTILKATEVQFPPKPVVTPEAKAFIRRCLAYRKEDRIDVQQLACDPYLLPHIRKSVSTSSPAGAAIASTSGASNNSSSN
Chain of ERN1/IRE1 (O75460 19-977): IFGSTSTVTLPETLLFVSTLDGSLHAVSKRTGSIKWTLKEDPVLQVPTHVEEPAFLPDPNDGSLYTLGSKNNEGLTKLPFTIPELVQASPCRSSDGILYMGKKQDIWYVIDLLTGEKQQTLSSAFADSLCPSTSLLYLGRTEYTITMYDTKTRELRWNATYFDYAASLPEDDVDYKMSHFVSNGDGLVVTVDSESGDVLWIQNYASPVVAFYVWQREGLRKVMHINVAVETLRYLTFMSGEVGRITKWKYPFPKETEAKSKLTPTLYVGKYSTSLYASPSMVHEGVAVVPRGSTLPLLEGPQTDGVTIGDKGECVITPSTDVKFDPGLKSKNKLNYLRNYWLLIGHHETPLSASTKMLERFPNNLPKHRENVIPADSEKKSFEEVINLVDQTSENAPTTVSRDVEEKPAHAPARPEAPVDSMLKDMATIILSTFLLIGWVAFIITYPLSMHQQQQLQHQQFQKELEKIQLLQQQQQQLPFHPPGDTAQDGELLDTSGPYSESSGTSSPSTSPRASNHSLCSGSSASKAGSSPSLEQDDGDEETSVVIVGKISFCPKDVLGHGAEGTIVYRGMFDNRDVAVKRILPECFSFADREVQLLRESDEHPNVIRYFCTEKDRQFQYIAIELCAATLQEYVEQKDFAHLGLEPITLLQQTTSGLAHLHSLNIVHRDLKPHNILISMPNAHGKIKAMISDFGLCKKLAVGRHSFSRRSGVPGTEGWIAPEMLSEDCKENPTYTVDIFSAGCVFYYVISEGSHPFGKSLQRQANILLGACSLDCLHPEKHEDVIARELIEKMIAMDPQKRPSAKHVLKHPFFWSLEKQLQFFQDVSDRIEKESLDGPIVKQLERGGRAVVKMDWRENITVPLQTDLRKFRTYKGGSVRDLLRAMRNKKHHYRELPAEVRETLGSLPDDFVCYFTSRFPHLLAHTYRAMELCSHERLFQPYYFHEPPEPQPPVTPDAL
Chain of STK32B/YANK2 (Q9NY57 whole entry): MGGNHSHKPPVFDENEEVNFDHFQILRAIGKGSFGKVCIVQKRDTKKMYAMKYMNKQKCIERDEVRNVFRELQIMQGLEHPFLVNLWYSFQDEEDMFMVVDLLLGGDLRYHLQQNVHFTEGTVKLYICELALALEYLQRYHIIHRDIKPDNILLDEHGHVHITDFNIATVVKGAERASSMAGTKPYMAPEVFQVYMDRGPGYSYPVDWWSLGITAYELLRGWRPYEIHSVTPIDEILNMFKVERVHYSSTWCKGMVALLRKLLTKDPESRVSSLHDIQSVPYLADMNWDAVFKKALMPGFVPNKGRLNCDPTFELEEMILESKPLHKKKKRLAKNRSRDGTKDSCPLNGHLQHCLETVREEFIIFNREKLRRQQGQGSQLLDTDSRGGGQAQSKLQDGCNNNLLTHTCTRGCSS
Chain of CK2a2 (P19784 whole entry): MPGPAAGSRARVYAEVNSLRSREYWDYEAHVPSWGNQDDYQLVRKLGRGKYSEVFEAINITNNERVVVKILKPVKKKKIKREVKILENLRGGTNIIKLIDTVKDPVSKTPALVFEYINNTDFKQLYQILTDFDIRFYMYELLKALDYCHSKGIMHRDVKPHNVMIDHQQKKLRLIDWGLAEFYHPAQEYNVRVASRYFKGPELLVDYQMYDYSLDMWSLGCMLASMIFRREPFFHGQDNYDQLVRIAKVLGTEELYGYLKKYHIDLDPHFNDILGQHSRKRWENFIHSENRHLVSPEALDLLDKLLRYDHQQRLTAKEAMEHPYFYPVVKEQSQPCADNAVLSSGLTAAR
Chain of GRK4 (P32298 whole entry): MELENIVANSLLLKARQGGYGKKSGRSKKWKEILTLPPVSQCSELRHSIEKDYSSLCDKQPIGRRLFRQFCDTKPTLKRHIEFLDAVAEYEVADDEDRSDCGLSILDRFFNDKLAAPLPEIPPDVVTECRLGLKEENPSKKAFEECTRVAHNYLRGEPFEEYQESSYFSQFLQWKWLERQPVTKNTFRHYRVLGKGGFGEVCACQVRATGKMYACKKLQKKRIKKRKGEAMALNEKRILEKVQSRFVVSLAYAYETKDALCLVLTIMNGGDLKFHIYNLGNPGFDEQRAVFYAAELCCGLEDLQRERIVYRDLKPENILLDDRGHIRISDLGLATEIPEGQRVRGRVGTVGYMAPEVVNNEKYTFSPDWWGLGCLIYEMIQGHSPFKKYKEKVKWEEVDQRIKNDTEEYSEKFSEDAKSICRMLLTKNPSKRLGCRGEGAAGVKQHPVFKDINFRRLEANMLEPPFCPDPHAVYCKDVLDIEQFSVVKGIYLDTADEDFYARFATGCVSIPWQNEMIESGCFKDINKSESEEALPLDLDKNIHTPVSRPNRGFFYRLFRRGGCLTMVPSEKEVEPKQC

Turning to `COc1cc(-c2cncc(-c3ccc(N4CCN(C)CC4)cc3)c2C)cc(F)c1C(N)=O` [Compound 26a, 2-Fluoro-6-methoxy-4-(4-methyl-5-(4-(4-methylpiperazin-1-yl)phenyl)pyridin-3-yl)benzamide], the remaining activity at 1 µM on TLK2 stood at 96.6%; at CK2a2, 95.3%; on P38d/MAPK13, 101%; at GRK4, 80.4%. The “% enzyme activity” value is listed as 92.47% on ERN1/IRE1; 87.20% on STK32B/YANK2; 91.49% on PDK1/PDPK1; 81.46% on DCAMKL1; 96.22% on c-Src; 98.28% on MAK. Further, the “% enzyme activity” value on DYRK1B amounted to 39.80%.

On to `COc1cc(-c2cncc(-c3ccc(N4C[C@@H](C)N(C)[C@@H](C)C4)cc3)c2C)cc(F)c1C(N)=O` [Compound 26c, 2-Fluoro-6-methoxy-4-(4-methyl-5-(4-((3R,5S)-3,4,5-trimethylpiperazin-1-yl)phenyl)pyridin-3-yl)benzamide], for which the remaining activity at 1 µM on TLK2 worked out at 93.3%; on CK2a2 it was 101%; on P38d/MAPK13 it was 97.7%; on GRK4, 97.1%. Moreover, the “% enzyme activity” value at ERN1/IRE1 is listed as 90.44%; on STK32B/YANK2, 94.20%; at PDK1/PDPK1 it was 94.36%; on DCAMKL1, 85.85%; on c-Src, 97.10%; at MAK, 100.81%. Besides, the “% enzyme activity” value at DYRK1B came to 58.52%.
